In ChEMBL document CHEMBL4346717, “1,2,4-Triazole-quinoline/quinolone hybrids as potential anti-bacterial agents” (Eur J Med Chem, 2019):
Converted amounts (≈) assume the structure as drawn.

Key:
Type in all cases: functional
Escherichia coli [1] = assay: Antibacterial activity against Escherichia coli
Pseudomonas aeruginosa [2] = assay: Antibacterial activity against Pseudomonas aeruginosa
Staphylococcus aureus [3] = assay: Antibacterial activity against Staphylococcus aureus
Bacillus cereus = assay: Antibacterial activity against Bacillus cereus
[4] = system: Mycolicibacterium smegmatis; assay: Antibacterial activity against Mycobacterium smegmatis
[5] = system: Yersinia pseudotuberculosis; assay: Antibacterial activity against Yersinia pseudotuberculosis
Enterococcus faecalis = assay: Antibacterial activity against Enterococcus faecalis
Mycolicibacterium phlei [6] = assay: Antibacterial activity against Mycobacterium phlei clinical isolate assessed as zone of inhibition at 10 mg/ml after 3 to 7 days by cup diffusion method; conditions: read-out: IZ
Bacillus subtilis [7] = assay: Antibacterial activity against Bacillus subtilis after 3 to 7 days by cup diffusion method; conditions: Bacillus subtilis; read-out: MIC
Pseudomonas aeruginosa [8] = assay: Antibacterial activity against Pseudomonas aeruginosa assessed as zone of inhibition at 10 mg/ml after 3 to 7 days by cup diffusion method; conditions: read-out: IZ
Bacillus subtilis [9] = assay: Antibacterial activity against Bacillus subtilis assessed as zone of inhibition at 10 mg/ml after 3 to 7 days by cup diffusion method; conditions: read-out: IZ
Escherichia coli [10] = assay: Antibacterial activity against Escherichia coli after 3 to 7 days by cup diffusion method; conditions: Escherichia coli; read-out: MIC
[11] = system: Aggregatibacter actinomycetemcomitans; assay: Antibacterial activity against Aggregatibacter actinomycetemcomitans ATCC 29524 assessed as zone of inhibition at 10 mg/ml after 3 to 7 days by cup diffusion method; conditions: read-out: IZ
Staphylococcus aureus [12] = assay: Antibacterial activity against Staphylococcus aureus assessed as zone of inhibition at 10 mg/ml after 3 to 7 days by cup diffusion method; conditions: read-out: IZ
Staphylococcus aureus [13] = assay: Antibacterial activity against Staphylococcus aureus after 3 to 7 days by cup diffusion method; conditions: Staphylococcus aureus; read-out: MIC
[14] = system: Aggregatibacter actinomycetemcomitans; assay: Antibacterial activity against Aggregatibacter actinomycetemcomitans ATCC 29524 after 3 to 7 days by cup diffusion method; conditions: Aggregatibacter actinomycetemcomitans, ATCC 29524; read-out: MIC
Escherichia coli [15] = assay: Antibacterial activity against Escherichia coli assessed as zone of inhibition at 10 mg/ml after 3 to 7 days by cup diffusion method; conditions: read-out: IZ
Mycolicibacterium phlei [16] = assay: Antibacterial activity against Mycobacterium phlei clinical isolate after 3 to 7 days by cup diffusion method; conditions: Mycolicibacterium phlei; read-out: MIC
Pseudomonas aeruginosa [17] = assay: Antibacterial activity against Pseudomonas aeruginosa after 3 to 7 days by cup diffusion method; conditions: Pseudomonas aeruginosa; read-out: MIC

| SMILES | MIC (Escherichia coli [1]) [µg/mL] | MIC (Pseudomonas aeruginosa [2]) [µg/mL] | MIC (Staphylococcus aureus [3]) [µg/mL] | MIC (Bacillus cereus) [µg/mL] | MIC [4] [µg/mL] | MIC [5] [µg/mL] | MIC (Enterococcus faecalis) [µg/mL] | zone of inhibition at 10000 µg/mL (Mycolicibacterium phlei [6]) [mm] | MIC (Bacillus subtilis [7]) [µM] | zone of inhibition at 10000 µg/mL (Pseudomonas aeruginosa [8]) [mm] | zone of inhibition at 10000 µg/mL (Bacillus subtilis [9]) [mm] | MIC (Escherichia coli [10]) [µM] | zone of inhibition at 10000 µg/mL [11] [mm] | zone of inhibition at 10000 µg/mL (Staphylococcus aureus [12]) [mm] | MIC (Staphylococcus aureus [13]) [µM] | MIC [14] [µM] | zone of inhibition at 10000 µg/mL (Escherichia coli [15]) [mm] | MIC (Mycolicibacterium phlei [16]) [µM] | MIC (Pseudomonas aeruginosa [17]) [µM] |
| --- | --- | --- | --- | --- | --- | --- | --- | --- | --- | --- | --- | --- | --- | --- | --- | --- | --- | --- | --- |
| Nn1c(S)nnc1Cn1c(=O)cc(-c2ccccc2)c2ccc(Cl)cc21 | 8 to 256 (≈ 20.8 to 667 µM) | 8 to 256 (≈ 20.8 to 667 µM) | 8 to 256 (≈ 20.8 to 667 µM) |  |  |  |  |  |  |  |  |  |  |  |  |  |  |  |  |
| CCn1cc(C(=O)O)c(=O)c2cc(F)c(N3CCN(Cn4nc(N5CCN(c6ccc([N+](=O)[O-])cc6)CC5)n(Cc5ccccc5)c4=O)CC3)cc21 | 0.03 to 0.99 (≈ 0.0421 to 1.39 µM) | 0.03 to 0.99 (≈ 0.0421 to 1.39 µM) | 0.03 to 0.99 (≈ 0.0421 to 1.39 µM) | 0.03 to 0.99 (≈ 0.0421 to 1.39 µM) | 0.03 to 0.99 (≈ 0.0421 to 1.39 µM) | 0.03 to 0.99 (≈ 0.0421 to 1.39 µM) | 0.03 to 0.99 (≈ 0.0421 to 1.39 µM) |  |  |  |  |  |  |  |  |  |  |  |  |
| CCn1cc(C(=O)O)c(=O)c2cc(F)c(N3CCN(Cn4nc(N5CCN(c6ccc([N+](=O)[O-])cc6)CC5)n(Cc5ccccc5)c4=S)CC3)cc21 | 0.03 to 0.99 (≈ 0.0412 to 1.36 µM) | 0.03 to 0.99 (≈ 0.0412 to 1.36 µM) | 0.03 to 0.99 (≈ 0.0412 to 1.36 µM) | 0.03 to 0.99 (≈ 0.0412 to 1.36 µM) | 0.03 to 0.99 (≈ 0.0412 to 1.36 µM) | 0.03 to 0.99 (≈ 0.0412 to 1.36 µM) | 0.03 to 0.99 (≈ 0.0412 to 1.36 µM) |  |  |  |  |  |  |  |  |  |  |  |  |
| Nn1c(S)nnc1Cn1c(=O)cc(-c2ccccc2)c2cccc(Cl)c21 | 8 to 256 (≈ 20.8 to 667 µM) | 8 to 256 (≈ 20.8 to 667 µM) | 8 to 256 (≈ 20.8 to 667 µM) |  |  |  |  |  |  |  |  |  |  |  |  |  |  |  |  |
| CCn1cc(-c2nc(/N=C/c3ccccc3O)n[nH]2)c(=O)c2cc(Br)c(C)nc21 |  |  |  |  |  |  |  | 20 to 40 | 3.68 to 6.3 (≈ 1.67 to 2.86 µg/mL) | 20 to 40 | 20 to 40 | 3.68 to 6.3 (≈ 1.67 to 2.86 µg/mL) | 20 to 40 | 20 to 40 | 3.68 to 6.3 (≈ 1.67 to 2.86 µg/mL) | 3.68 to 6.3 (≈ 1.67 to 2.86 µg/mL) | 20 to 40 | 3.68 to 6.3 (≈ 1.67 to 2.86 µg/mL) | 3.68 to 6.3 (≈ 1.67 to 2.86 µg/mL) |
| Nn1c(S)nnc1Cn1c(=O)cc(-c2ccccc2)c2cc(Cl)ccc21 | 8 to 256 (≈ 20.8 to 667 µM) | 8 to 256 (≈ 20.8 to 667 µM) | 8 to 256 (≈ 20.8 to 667 µM) |  |  |  |  |  |  |  |  |  |  |  |  |  |  |  |  |
| CCn1cc(C(=O)O)c(=O)c2cc(F)c(N3CCN(Cn4nc(N5CCN(c6ccc([N+](=O)[O-])cc6)CC5)n(-c5ccccc5)c4=O)CC3)cc21 | 0.03 to 0.99 (≈ 0.043 to 1.42 µM) | 0.03 to 0.99 (≈ 0.043 to 1.42 µM) | 0.03 to 0.99 (≈ 0.043 to 1.42 µM) | 0.03 to 0.99 (≈ 0.043 to 1.42 µM) | 0.03 to 0.99 (≈ 0.043 to 1.42 µM) | 0.03 to 0.99 (≈ 0.043 to 1.42 µM) | 0.03 to 0.99 (≈ 0.043 to 1.42 µM) |  |  |  |  |  |  |  |  |  |  |  |  |
| CCn1cc(C(=O)O)c(=O)c2cc(F)c(N3CCN(Cn4nc(N5CCN(c6ccc([N+](=O)[O-])cc6)CC5)n(-c5ccc(F)cc5)c4=S)CC3)cc21 | 0.03 to 0.99 (≈ 0.041 to 1.35 µM) | 0.03 to 0.99 (≈ 0.041 to 1.35 µM) | 0.03 to 0.99 (≈ 0.041 to 1.35 µM) | 0.03 to 0.99 (≈ 0.041 to 1.35 µM) | 0.03 to 0.99 (≈ 0.041 to 1.35 µM) | 0.03 to 0.99 (≈ 0.041 to 1.35 µM) | 0.03 to 0.99 (≈ 0.041 to 1.35 µM) |  |  |  |  |  |  |  |  |  |  |  |  |
| CCn1cc(-c2nc(/N=C/c3ccc(Cl)cc3Cl)n[nH]2)c(=O)c2cc(Br)c(C)nc21 |  |  |  |  |  |  |  | 20 to 40 | 3.68 to 6.3 (≈ 1.86 to 3.19 µg/mL) | 20 to 40 | 20 to 40 | 3.68 to 6.3 (≈ 1.86 to 3.19 µg/mL) | 20 to 40 | 20 to 40 | 3.68 to 6.3 (≈ 1.86 to 3.19 µg/mL) | 3.68 to 6.3 (≈ 1.86 to 3.19 µg/mL) | 20 to 40 | 3.68 to 6.3 (≈ 1.86 to 3.19 µg/mL) | 3.68 to 6.3 (≈ 1.86 to 3.19 µg/mL) |
| CCn1c(N2CCN(c3ccc([N+](=O)[O-])cc3)CC2)nn(CN2CCN(c3cc4c(cc3F)c(=O)c(C(=O)O)cn4CC)CC2)c1=S | 0.03 to 0.99 (≈ 0.0451 to 1.49 µM) | 0.03 to 0.99 (≈ 0.0451 to 1.49 µM) | 0.03 to 0.99 (≈ 0.0451 to 1.49 µM) | 0.03 to 0.99 (≈ 0.0451 to 1.49 µM) | 0.03 to 0.99 (≈ 0.0451 to 1.49 µM) | 0.03 to 0.99 (≈ 0.0451 to 1.49 µM) | 0.03 to 0.99 (≈ 0.0451 to 1.49 µM) |  |  |  |  |  |  |  |  |  |  |  |  |
| COc1ccc2c(-c3ccccc3)cc(=O)n(Cc3nnc(S)n3N)c2c1 | 8 to 256 (≈ 21.1 to 675 µM) | 8 to 256 (≈ 21.1 to 675 µM) | 8 to 256 (≈ 21.1 to 675 µM) |  |  |  |  |  |  |  |  |  |  |  |  |  |  |  |  |
| CCn1cc(-c2nc(/N=C/c3ccc(OC)cc3)n[nH]2)c(=O)c2cc(Br)c(C)nc21 |  |  |  |  |  |  |  | 20 to 40 | 3.68 to 6.3 (≈ 1.72 to 2.94 µg/mL) | 20 to 40 | 20 to 40 | 3.68 to 6.3 (≈ 1.72 to 2.94 µg/mL) | 20 to 40 | 20 to 40 | 3.68 to 6.3 (≈ 1.72 to 2.94 µg/mL) | 3.68 to 6.3 (≈ 1.72 to 2.94 µg/mL) | 20 to 40 | 3.68 to 6.3 (≈ 1.72 to 2.94 µg/mL) | 3.68 to 6.3 (≈ 1.72 to 2.94 µg/mL) |
